Common to all, as to format: biochemical
Details in all cases: 10 nM JAK enzyme, 800 nM Abl peptide, room temperature 75 min

One experiment deals with JAK1 (Homo sapiens, UniProt P23458). As to the kind of experiment: JAK assay (KINASE-GLO luminescent kinase assay), JAK1. The method in brief:
(§1)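 The 2× mix gave 10 nM kinase, 800 nM Abl peptide and 2 µM DTT, and ATP was added as a 4× stock (2 µM), in HEPES pH 7.5 buffer. Compounds ran as an 11-point series, 100 µM–10 pM final in 2.5% DMSO, for 75 min at RT. Remaining ATP was read by luminescence against DMSO control, and 4-parameter IC50s were converted to Ki by Cheng-Prusoff.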
(In general: Kinase-Glo reads ATP consumption through a luciferase reaction.)

For another experiment, the target named is JAK2 (Homo sapiens, UniProt O60674). The experiment in a line: JAK assay (KINASE-GLO luminescent kinase assay), JAK2. The method in brief:
as §1

A further experiment addresses T1, JAK3 (Homo sapiens, UniProt P52333).
T1 sequence (P52333 1-1124): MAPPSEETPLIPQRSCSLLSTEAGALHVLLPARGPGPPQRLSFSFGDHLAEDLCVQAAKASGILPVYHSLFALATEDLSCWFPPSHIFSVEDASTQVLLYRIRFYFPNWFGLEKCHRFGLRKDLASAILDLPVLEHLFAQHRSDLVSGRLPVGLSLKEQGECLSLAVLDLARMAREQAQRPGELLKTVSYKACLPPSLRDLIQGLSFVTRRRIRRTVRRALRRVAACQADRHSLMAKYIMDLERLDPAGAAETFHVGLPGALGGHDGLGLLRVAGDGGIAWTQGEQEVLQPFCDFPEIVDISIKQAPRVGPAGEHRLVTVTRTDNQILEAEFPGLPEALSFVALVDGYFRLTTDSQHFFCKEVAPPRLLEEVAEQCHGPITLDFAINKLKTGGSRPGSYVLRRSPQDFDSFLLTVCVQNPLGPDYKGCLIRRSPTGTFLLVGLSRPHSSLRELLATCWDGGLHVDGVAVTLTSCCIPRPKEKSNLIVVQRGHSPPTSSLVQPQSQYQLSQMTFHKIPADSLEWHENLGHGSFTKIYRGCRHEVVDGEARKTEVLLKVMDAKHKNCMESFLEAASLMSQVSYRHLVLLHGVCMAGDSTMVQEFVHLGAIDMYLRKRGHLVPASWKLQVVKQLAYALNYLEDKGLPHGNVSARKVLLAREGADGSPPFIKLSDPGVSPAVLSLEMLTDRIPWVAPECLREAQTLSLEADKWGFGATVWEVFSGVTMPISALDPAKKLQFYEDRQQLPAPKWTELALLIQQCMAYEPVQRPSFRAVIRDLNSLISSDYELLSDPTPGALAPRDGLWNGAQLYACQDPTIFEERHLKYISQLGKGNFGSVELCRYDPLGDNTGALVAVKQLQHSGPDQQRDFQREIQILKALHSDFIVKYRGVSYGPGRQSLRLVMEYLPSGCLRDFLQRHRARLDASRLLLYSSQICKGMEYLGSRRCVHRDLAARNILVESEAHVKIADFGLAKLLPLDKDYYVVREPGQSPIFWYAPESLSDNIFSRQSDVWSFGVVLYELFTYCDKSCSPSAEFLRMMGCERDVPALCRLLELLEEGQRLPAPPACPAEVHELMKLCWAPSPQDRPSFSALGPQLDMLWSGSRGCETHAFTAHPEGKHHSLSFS
The experiment in a line: JAK assay (KINASE-GLO luminescent kinase assay), JAK3. The procedure, abridged: as §1

The next experiment concerns the target TYK2 (Homo sapiens, UniProt P29597). The experiment in a line: JAK assay (KINASE-GLO luminescent kinase assay), TYK2.

The IC50 is the midpoint of a concentration-inhibition curve.

Chain of JAK2 (O60674 whole entry): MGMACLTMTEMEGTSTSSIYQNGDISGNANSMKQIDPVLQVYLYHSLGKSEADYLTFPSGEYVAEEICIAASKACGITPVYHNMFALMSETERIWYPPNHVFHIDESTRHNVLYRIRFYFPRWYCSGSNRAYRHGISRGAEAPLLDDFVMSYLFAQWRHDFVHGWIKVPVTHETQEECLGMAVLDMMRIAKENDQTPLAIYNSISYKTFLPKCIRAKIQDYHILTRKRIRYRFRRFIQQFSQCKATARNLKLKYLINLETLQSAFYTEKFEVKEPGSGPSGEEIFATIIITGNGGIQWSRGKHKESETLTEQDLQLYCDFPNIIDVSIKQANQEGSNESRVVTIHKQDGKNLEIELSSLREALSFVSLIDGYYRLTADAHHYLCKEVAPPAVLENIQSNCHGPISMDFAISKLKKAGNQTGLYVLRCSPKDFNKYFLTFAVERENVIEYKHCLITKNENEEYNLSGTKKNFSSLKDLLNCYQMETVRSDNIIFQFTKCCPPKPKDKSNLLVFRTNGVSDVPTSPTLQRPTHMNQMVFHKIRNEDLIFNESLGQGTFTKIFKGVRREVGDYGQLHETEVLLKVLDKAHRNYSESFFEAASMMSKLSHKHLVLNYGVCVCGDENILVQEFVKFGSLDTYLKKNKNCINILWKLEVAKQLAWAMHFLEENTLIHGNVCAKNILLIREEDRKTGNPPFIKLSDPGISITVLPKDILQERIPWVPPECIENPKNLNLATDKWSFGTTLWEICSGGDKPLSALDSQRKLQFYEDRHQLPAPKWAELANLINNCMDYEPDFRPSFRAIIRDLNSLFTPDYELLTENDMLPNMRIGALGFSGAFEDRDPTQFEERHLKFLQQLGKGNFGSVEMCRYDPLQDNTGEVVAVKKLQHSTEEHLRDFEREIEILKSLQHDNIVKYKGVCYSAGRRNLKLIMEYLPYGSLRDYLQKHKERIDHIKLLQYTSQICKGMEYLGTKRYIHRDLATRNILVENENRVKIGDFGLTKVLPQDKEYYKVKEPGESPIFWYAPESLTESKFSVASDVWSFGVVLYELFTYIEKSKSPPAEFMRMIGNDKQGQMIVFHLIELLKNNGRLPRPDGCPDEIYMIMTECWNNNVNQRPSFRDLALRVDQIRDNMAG
Chain of TYK2 (P29597 whole entry): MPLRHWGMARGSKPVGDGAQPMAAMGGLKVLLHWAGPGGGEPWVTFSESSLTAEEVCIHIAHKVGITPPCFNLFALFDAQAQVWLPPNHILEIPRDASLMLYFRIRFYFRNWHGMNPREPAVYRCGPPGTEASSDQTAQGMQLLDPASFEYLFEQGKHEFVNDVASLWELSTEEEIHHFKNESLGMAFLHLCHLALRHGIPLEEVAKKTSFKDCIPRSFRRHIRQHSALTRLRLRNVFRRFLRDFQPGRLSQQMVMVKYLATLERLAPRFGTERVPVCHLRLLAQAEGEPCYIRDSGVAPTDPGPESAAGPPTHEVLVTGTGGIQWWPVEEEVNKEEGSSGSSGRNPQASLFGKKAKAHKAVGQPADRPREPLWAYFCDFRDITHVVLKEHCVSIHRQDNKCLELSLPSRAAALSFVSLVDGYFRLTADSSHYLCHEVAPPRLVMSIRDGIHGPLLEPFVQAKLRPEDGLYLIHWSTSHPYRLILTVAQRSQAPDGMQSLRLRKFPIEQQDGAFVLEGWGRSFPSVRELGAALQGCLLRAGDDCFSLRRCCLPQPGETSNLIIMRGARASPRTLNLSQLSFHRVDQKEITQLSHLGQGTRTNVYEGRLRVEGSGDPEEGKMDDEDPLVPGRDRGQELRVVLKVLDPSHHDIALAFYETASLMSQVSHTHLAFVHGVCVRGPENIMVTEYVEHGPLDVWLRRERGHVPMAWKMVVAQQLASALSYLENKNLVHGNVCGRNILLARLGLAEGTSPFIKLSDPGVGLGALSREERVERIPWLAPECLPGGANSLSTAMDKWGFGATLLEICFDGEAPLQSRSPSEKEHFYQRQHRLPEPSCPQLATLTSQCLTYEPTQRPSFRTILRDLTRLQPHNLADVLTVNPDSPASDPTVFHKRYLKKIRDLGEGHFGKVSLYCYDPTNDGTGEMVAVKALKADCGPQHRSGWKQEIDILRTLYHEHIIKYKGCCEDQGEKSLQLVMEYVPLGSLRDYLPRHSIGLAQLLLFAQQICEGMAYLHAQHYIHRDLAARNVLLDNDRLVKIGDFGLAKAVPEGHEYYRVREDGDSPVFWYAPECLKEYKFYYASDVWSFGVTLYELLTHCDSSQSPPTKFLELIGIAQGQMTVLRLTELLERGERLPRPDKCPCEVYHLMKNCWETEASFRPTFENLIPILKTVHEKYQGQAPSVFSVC
Chain of JAK1 (P23458 whole entry): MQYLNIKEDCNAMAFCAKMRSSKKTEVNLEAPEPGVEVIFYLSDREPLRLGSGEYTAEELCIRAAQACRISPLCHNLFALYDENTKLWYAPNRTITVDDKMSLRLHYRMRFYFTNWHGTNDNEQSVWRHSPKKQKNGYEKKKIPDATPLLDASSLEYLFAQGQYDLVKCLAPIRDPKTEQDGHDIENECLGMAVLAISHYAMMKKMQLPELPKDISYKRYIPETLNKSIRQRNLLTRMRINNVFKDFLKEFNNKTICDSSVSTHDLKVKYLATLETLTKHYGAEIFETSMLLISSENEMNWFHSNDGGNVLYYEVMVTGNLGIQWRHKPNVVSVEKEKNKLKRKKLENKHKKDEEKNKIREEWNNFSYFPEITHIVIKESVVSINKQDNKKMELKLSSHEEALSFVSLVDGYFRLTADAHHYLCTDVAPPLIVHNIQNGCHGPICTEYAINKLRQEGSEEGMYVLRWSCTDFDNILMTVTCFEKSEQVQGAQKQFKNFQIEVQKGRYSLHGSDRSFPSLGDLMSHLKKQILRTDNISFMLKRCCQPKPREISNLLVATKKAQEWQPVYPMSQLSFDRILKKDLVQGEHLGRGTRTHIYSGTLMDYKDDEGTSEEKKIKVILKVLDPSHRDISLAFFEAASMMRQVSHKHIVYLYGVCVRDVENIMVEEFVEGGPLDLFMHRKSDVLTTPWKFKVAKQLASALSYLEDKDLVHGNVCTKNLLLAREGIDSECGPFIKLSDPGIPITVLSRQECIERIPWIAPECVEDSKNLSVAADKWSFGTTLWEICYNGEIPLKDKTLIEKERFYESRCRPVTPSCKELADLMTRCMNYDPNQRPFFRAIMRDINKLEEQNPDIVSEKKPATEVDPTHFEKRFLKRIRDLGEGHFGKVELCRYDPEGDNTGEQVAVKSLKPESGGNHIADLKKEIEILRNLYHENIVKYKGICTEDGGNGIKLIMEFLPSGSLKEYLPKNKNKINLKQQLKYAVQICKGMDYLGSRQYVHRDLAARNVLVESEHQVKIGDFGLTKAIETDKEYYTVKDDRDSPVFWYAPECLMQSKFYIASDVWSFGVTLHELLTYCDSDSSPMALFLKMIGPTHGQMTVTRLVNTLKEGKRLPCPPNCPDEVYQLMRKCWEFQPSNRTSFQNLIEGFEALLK

Consider `Cn1cc(Nc2ncc(Cl)c(-c3cnn(CCC4CC4)c3)n2)cn1` [C[N]1C═C(NC2═NC(═C], for which the IC50 is < 100 nM on JAK1, < 10 nM at JAK2, < 10 nM on JAK3 and < 100 nM at TYK2.
As for `Cc1cnc(Nc2cc(CN(C)C)ns2)nc1-c1cnn(CC2(CF)CC2)c1` [CN(C)CC1═NSC(═C1)NC2═NC(═C], the IC50 against JAK1 was < 100 nM; at JAK2, < 10 nM; against JAK3, < 100 nM; at TYK2, < 10 nM.
`Cc1cnc(Nc2ccnc(CN(C)C)c2)nc1-c1cnn(CC2(CF)CCC2)c1` [CN(C)CC1═CC(═CC═N1)NC2═NC(═C]: the IC50 on JAK1 was < 1000 nM; against JAK2, < 10 nM; at JAK3, < 100 nM; against TYK2 it was < 100 nM.
As to `Cc1cnc(Nc2ccc(CNC(=O)OC(C)(C)C)cc2)nc1-c1cnn(CC2(CF)CC2)c1` [CC1═C(N═C(NC2═CC═C(CNC(═O)OC], the IC50 was < 100 nM on JAK1, < 10 nM against JAK2, < 100 nM against JAK3 and < 100 nM against TYK2.
For the molecule `Cc1cc(Nc2ncc(C)c(-c3cnn(CC4(CF)CCC4)c3)n2)ccn1` [CC1═NC═CC(═C1)NC2═NC(═C], the IC50 against JAK1 is < 1000 nM; against JAK2 it was < 10 nM; against JAK3, < 100 nM; on TYK2 it was < 100 nM.
In the case of `COC(=O)c1cc(Nc2ncc(C)c(-c3cnn(CCC#N)c3)n2)ccc1N1CCOCC1` [COC(═O)C1═CC(═CC═C1)NC2═NC(═C], the IC50 at JAK1 is < 100 nM; against JAK2, < 10 nM; against JAK3, < 10 nM; at TYK2, < 100 nM.
`Cc1cnc(Nc2cc(CN3CCN(C)CC3)ns2)nc1-c1cnn(CC2(CF)CC2)c1` [CN1CCN(CC1)CC2═NSC(═C2)NC3═NC]: the IC50 was < 1000 nM at JAK1, < 10 nM against JAK2, < 100 nM against JAK3 and < 100 nM against TYK2.
Take `COCCOc1ccc(Nc2ncc(C)c(-c3cnn(CC4(CF)CC4)c3)n2)cc1` [COCCOC1═CC═C(NC2═NC(═C]: the IC50 against JAK1 is < 100 nM; against JAK2, < 10 nM; against JAK3, < 100 nM; against TYK2, < 100 nM.
As for `Cc1cnc(Nc2ccnc(OCCN(C)C)c2)nc1-c1cnn(CC2(CC#N)CC2)c1` [CN(C)CCOC1═CC(═CC═N1)NC2═NC(═C], the IC50 at JAK1 is < 100 nM; against JAK2 it was < 10 nM; against JAK3, < 100 nM; at TYK2 it was < 100 nM.
`Cc1cnc(Nc2ccc(CNC(=O)CCN(C)C)cc2)nc1-c1cnn(CC2(CF)CC2)c1` [CN(C)CCC(═O)NCC1═CC═C(NC2═NC(═C]: the IC50 against JAK1 is < 100 nM; on JAK2, < 10 nM; on JAK3, < 100 nM; against TYK2 it was < 100 nM.
As to `Cc1cnc(Nc2cc(CNC(=O)CCN(C)C)ns2)nc1-c1cnn(CC2(CF)CC2)c1` [CN(C)CCC(═O)NCC1═NSC(═C1)NC2═NC], the IC50 against JAK1, at JAK2, on JAK3 and at TYK2 was < 10 nM throughout.
In the case of `COCCOCc1cc(Nc2ncc(C)c(-c3cnn(CC4(CF)CC4)c3)n2)sn1` [COCCOCC1═NSC(═C1)NC2═NC(═C], the IC50 against JAK1, against JAK2, against JAK3 and against TYK2 was < 1000 nM in each case.
Regarding `N#CCCn1cc(-c2nc(Nc3ccc(CCOP(=O)(O)O)cc3)ncc2Cl)cn1` [O[P](O)(═O)OCCC1═CC═C(NC2═NC(═C], the half-inhibitory concentration (IC50) was < 100 nM at JAK1, < 10 nM on JAK2, < 100 nM against JAK3 and < 10 nM against TYK2.
With `CCS(=O)(=O)N1CC(CF)(Cn2cc(-c3nc(Nc4cc(C)ns4)ncc3Cl)cn2)C1` [CC[S](═O)(═O)N1CC(CF)(C[N]2C═C], the IC50 on JAK1 was < 100 nM; against JAK2, < 10 nM; against JAK3, < 100 nM; at TYK2, < 100 nM.
As to `Cc1cnc(Nc2cc(COC(=O)CCN(C)C)ns2)nc1-c1cnn(CC2(CF)CC2)c1` [CN(C)CCC(═O)OCC1═NSC(═C1)NC2═NC], the concentration for half-maximal inhibition (IC50) against JAK1 was < 100 nM; against JAK2, < 10 nM; against JAK3, < 10 nM; at TYK2 it was < 10 nM.
Consider `Cc1cnc(Nc2ccc(N3CCN(C)CC3)cc2)nc1-c1cnn(CC2(C#N)CC2)c1` [CN1CCN(CC1)C2═CC═C(NC3═NC(═C(C([2H])], for which the IC50 is < 100 nM against JAK1, < 10 nM against JAK2, < 10 nM against JAK3 and < 10 nM on TYK2.
For `CNC1(Cn2cc(-c3nc(Nc4cc(C)ns4)ncc3Cl)cn2)CC1` [CNC1(CC1)C[N]2C═C(C═N2)C3═C], the IC50 was < 100 nM at JAK1, < 10 nM at JAK2, < 10 nM at JAK3 and < 100 nM against TYK2.
For the molecule `Cc1cnc(Nc2ccc(N3CC(N(C)C)C3)cc2)nc1-c1cnn(CC2(CF)CC2)c1` [CN(C)C1CN(C1)C2═CC═C(NC3═NC], the IC50 was < 100 nM on JAK1, < 10 nM on JAK2, < 10 nM on JAK3 and < 100 nM at TYK2.
Regarding `N#CCCn1cc(-c2nc(Nc3cccc(CN4CC(F)C4)c3)ncc2Cl)cn1` [FC1CN(C1)CC2═CC═CC(═C2)NC3═NC(═C], the IC50 at JAK1 is < 100 nM; at JAK2, < 10 nM; against JAK3, < 10 nM; against TYK2, < 10 nM.
For `COc1cnc(Nc2ccc(N3CCN(C)CC3)cc2)nc1-c1cnn(CC2(Cl)CC2)c1` [COC1═C(N═C(NC2═CC═C], the IC50 is < 100 nM against JAK1, < 10 nM at JAK2, < 10 nM against JAK3 and < 100 nM at TYK2.
Regarding `COc1cc(Nc2ncc(C)c(-c3cnn(CC4(CF)CC4)c3)n2)sn1` [COC1═NSC(═C1)NC2═NC(═C], the IC50 on JAK1 was < 100 nM; against JAK2, < 10 nM; on JAK3 it was < 100 nM; against TYK2, < 10 nM.
Regarding `C=CCNc1ncc(C)c(-c2cnn(CCC#N)c2)n1` [CC1═C(N═C(NCC═C)N═C1)C2═C[N]], the IC50 against JAK1, against JAK2, on JAK3 and on TYK2 was < 100000 nM in each case.
`Cc1cnc(Nc2cc(COC(=O)CCN3CCN(C)CC3)ns2)nc1-c1cnn(CC2(CF)CC2)c1` [CN1CCN(CC1)CCC(═O)OCC2═NSC]: the IC50 against JAK1 was < 100 nM; at JAK2, < 10 nM; at JAK3 it was < 10 nM; on TYK2 it was < 10 nM.
Take `Cc1cc(Nc2ncc(Cl)c(-c3cnn(CC4(N(C)C(=O)OC(C)(C)C)CC4)c3)n2)sn1` [CN(C(═O)OC(C)(C)C)C1(CC1)C[N]2C═C]: the IC50 against JAK1 was < 1000 nM; at JAK2 it was < 100 nM; against JAK3 it was < 100 nM; against TYK2, < 1000 nM.
Turning to `Cc1cnc(Nc2ccc(N3CCN(C)CC3)cc2)nc1-c1cnn(CC2(F)CC2)c1` [CN1CCN(CC1)C2═CC═C(NC3═NC(═C(C], the IC50 on JAK1 was < 100 nM; at JAK2, < 10 nM; at JAK3 it was < 10 nM; against TYK2 it was < 10 nM.
Take `Cc1cnc(NCCO)nc1-c1cnn(CCC#N)c1` [CC1═C(N═C(NCCO)N═C1)C2═C[N]]: the half-inhibitory concentration (IC50) on JAK1, against JAK2, against JAK3 and at TYK2 was < 100000 nM throughout.
Turning to `CNCc1cc(Nc2ncc(C)c(-c3cnn(CC4(CF)CC4)c3)n2)sn1` [CNCC1═NSC(═C1)NC2═NC(═C], the IC50 was < 100 nM at JAK1, < 10 nM at JAK2, < 100 nM on JAK3 and < 100 nM on TYK2.

(Values after patent US20250236611A1, “PYRAZOLE COMPOUNDS AND USES THEREOF” (ALCON INC., priority 2021, published 2025).)
